Laboratory results reported in the supplement of paper PMC10307832.

What was measured:
Experiment in all cases: relative viability (nuclei count vs DMSO), 5 days (fraction); higher = more cells survive
[1] = compound: CCN1C(=O)C2=CC(=C(N=C2N(C1=O)C3CC3)N)C(=O)N + Cc1nc(Nc2ncc(C(=O)Nc3c(C)cccc3Cl)s2)cc(N2CCN(CCO)CC2)n1 [Dasatinib] (partner 0.075 µM)
Procedure, shortened: (§1)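 Lung cancer cell lines were pin-tool dosed in 1536-well plates on the day after seeding, with either a lone drug or a fixed anchor-drug dose plus five library-drug doses (not always all listed) in √10 steps. Nuclei were counted on 4× images after 5 days. Relative viability is the ratio of treated-well to vehicle-well nuclei counts, with each value a median of duplicate plates.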

[2] = compound: CCN1C(=O)C2=CC(=C(N=C2N(C1=O)C3CC3)N)C(=O)N + N=C(N)NC(=N)NCCc1ccccc1 [Phenformin] (partner 250 µM)
Procedure, shortened: as §1

[3] = compound: CCN1C(=O)C2=CC(=C(N=C2N(C1=O)C3CC3)N)C(=O)N + Cc1nc(NC(=O)N2CCC[C@H]2C(N)=O)sc1-c1ccnc(C(C)(C)C(F)(F)F)c1 [Alpelisib] (partner 2 µM)
Procedure, shortened: as §1

[4] = compound: CCN1C(=O)C2=CC(=C(N=C2N(C1=O)C3CC3)N)C(=O)N + CS(=O)(=O)N1CCN(Cc2cc3nc(-c4cccc5[nH]ncc45)nc(N4CCOCC4)c3s2)CC1 [Pictilisib] (partner 1 µM)
Procedure, shortened: as §1

[5] = compound: CCN1C(=O)C2=CC(=C(N=C2N(C1=O)C3CC3)N)C(=O)N + CS(=O)(=O)CCNCc1ccc(-c2ccc3ncnc(Nc4ccc(OCc5cccc(F)c5)c(Cl)c4)c3c2)o1 [Lapatinib] (partner 2 µM)
Procedure, shortened: as §1

Cell Line	relative viability ([1]; first compound 0.253 µM)	relative viability ([1]; first compound 0.8 µM)	relative viability ([1]; first compound 2.53 µM)	relative viability ([1]; first compound 8 µM)	relative viability ([2]; first compound 0.253 µM)	relative viability ([2]; first compound 0.8 µM)	relative viability ([2]; first compound 2.53 µM)	relative viability ([2]; first compound 8 µM)	relative viability ([3]; first compound 0.253 µM)	relative viability ([3]; first compound 0.8 µM)	relative viability ([3]; first compound 2.53 µM)	relative viability ([3]; first compound 8 µM)	relative viability ([4]; first compound 0.253 µM)	relative viability ([4]; first compound 0.8 µM)	relative viability ([4]; first compound 2.53 µM)	relative viability ([4]; first compound 8 µM)	relative viability ([5]; first compound 0.253 µM)	relative viability ([5]; first compound 0.8 µM)	relative viability ([5]; first compound 2.53 µM)	relative viability ([5]; first compound 8 µM)
NCI-H1792	0.763	0.826	0.879	0.567	0.224	0.237	0.367	0.352	0.777	0.687	0.759	0.774	0.312	0.28	0.355	0.3	0.993	0.859	1.1	0.769
NCI-H1793		0.434	0.32	0.419		0.38	0.352	0.408	0.715	0.644		0.63	0.267	0.308		0.303	0.635	0.819		0.636
NCI-H1915	0.294	0.307	0.312	0.285	0.367	0.362	0.376	0.36	1.1	0.985	1.01	1.06	0.953	0.843	0.953	0.904	0.952	0.942	0.974	0.922
NCI-H1944	0.22	0.217	0.213	0.217	0.255	0.218	0.208	0.204	0.826	0.832	0.749	0.842	0.354	0.354	0.342	0.308	0.873	0.679	0.818	0.756
NCI-H1975	0.381	0.341	0.356	0.268	0.416	0.417	0.406	0.375	0.635	0.653	0.614	0.619	0.276	0.293	0.306	0.306	0.841	0.844	0.868	0.91
NCI-H1993	0.511	0.49	0.477	0.497	0.526	0.457	0.524	0.438	0.651	0.7	0.611	0.669	0.706	0.832	0.786	0.758	0.782	0.817	0.815	0.823
NCI-H2009	0.289	0.291	0.275	0.259	0.481	0.485	0.453	0.453	1.17	1.11	1.13	1.09	0.874	0.803	0.8	0.771	0.93	1.23	0.892	0.847
NCI-H2023	0.629	0.478	0.546	0.55	0.411	0.42	0.357	0.388	0.634	0.542	0.574	0.584	0.229	0.218	0.23	0.26	0.51	0.813	0.777	0.776
NCI-H2085	0.224	0.259	0.227	0.23	0.737	0.666	0.752	0.684	0.96	0.945	0.924	1.04	0.418	0.397	0.444	0.42	0.721	0.782	0.743	0.68
NCI-H2087	0.746	0.829	0.818	0.753	0.439	0.466	0.443	0.398	1.09	1.07	1.12	1.08	0.785	0.788	0.878	0.857	0.811	1.14	1.21	0.872
NCI-H2126	0.632	0.55	0.596	0.52	0.553	0.512	0.522	0.506	0.759	0.734	0.785	0.734	0.509	0.511	0.507	0.474	0.787	0.778	0.761	0.749
NCI-H2170	0.518	0.549	0.596	0.522	0.42	0.444	0.418	0.445	0.908	0.789	0.734	0.809	0.297	0.326	0.295	0.335	0.253	0.257	0.263	0.255
NCI-H2228	0.505	0.467	0.508	0.55	0.405	0.372	0.331	0.395	0.622	0.669	0.709	1.16	0.393	0.368	0.353	0.4	0.893	1.1	1.26	1.26
NCI-H2347	0.294	0.307	0.161	0.323	0.373	0.424	0.547	0.418	0.963	0.987	1.02	0.89	0.475	0.711	0.566	0.782	0.94	1.01	0.985	0.937
NCI-H2405	0.196	0.185	0.227	0.174	0.379	0.388	0.381	0.395	0.909	0.79	0.767	0.723	0.456	0.464	0.424	0.479	1.21	1.16	1.08	1.01
NCI-H3122	0.772	0.803	0.81	0.788	0.401	0.393	0.394	0.358	0.748	0.755	0.717	0.819	0.51	0.695	0.554	0.658	1	1.05	0.951	1.03
